# Source: patent US20200109126A1 (priority 2017, published 2020)
# Where two headings read alike, the source gives them in different places.
# Columns and labels:
# hMOR = hMOR (Homo sapiens, UniProt P35372); assay: Receptor binding with [3H]diprenorphine at hMOR
# hKOR = hKOR (Homo sapiens, UniProt P41145); assay: Receptor binding with [3H]diprenorphine at hKOR
# humanDOR = humanDOR (Homo sapiens, UniProt P41143); assay: Receptor binding with [3H]diprenorphine at human DOR
# [1] = PZM analogs, (n) = number of independent experiments, read-out: binding affinity Ki hMOR
# [2] = PZM analogs, (n) = number of independent experiments, read-out: binding affinity Ki hKOR
# [3] = PZM analogs, (n) = number of independent experiments, read-out: binding affinity Ki hDOR
# [4] = ± SD (two experiments) or SEM, (n) experiments, read-out: hKOR [3H]dyprenorphine Ki
# [5] = ± SD (two experiments) or SEM, (n) experiments, read-out: humanDOR [3H]dyprenorphine Ki
# [6] = ± SD (two experiments) or SEM, (n) experiments, read-out: hMOR [3H]dyprenorphine Ki
# Chain of hMOR (P35372 whole entry): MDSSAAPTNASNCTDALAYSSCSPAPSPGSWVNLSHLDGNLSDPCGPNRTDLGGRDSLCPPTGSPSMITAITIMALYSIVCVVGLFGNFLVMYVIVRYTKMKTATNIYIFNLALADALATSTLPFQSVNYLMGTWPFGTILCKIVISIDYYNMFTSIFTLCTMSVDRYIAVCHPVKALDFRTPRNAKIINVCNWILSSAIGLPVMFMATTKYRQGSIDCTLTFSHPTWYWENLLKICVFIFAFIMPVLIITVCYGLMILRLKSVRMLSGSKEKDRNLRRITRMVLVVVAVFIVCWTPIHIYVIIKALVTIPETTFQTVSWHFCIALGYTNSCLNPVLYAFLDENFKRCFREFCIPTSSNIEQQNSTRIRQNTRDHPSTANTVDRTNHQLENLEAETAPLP
# Chain of hKOR (P41145 whole entry): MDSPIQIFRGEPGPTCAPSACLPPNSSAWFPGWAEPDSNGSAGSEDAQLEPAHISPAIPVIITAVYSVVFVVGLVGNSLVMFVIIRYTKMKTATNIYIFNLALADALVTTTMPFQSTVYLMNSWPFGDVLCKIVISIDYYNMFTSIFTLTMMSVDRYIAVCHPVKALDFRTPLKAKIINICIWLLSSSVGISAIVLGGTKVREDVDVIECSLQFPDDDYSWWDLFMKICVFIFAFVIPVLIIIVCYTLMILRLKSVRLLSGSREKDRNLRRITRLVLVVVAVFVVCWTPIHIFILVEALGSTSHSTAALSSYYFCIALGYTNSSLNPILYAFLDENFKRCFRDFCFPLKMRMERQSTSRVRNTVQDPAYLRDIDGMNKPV
# Chain of humanDOR (P41143 whole entry): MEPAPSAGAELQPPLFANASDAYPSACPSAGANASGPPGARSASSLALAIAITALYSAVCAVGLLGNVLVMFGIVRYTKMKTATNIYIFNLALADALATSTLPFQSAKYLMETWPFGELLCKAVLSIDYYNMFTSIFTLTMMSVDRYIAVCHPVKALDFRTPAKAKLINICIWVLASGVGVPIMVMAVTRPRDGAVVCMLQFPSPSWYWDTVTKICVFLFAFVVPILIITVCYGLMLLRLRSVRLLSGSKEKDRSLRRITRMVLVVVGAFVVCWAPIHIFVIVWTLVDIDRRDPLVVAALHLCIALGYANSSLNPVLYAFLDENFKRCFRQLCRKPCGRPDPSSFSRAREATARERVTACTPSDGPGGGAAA
SMILES,Ki (hMOR; [1]),Ki (hKOR; [2]),Ki (humanDOR; [3]),further results
CN(C)[C@@H](CNC(=O)NCCc1ccsc1)Cc1ccccc1,4200 nM,8100 nM,25000 nM,–
CN(C)[C@H](CNC(=O)NCCc1ccsc1)Cc1ccccc1,350 nM,3100 nM,4500 nM,–
C[C@@H](Cc1ccsc1)NC(=O)NC[C@@H](Cc1ccccc1)N(C)C,–,3100 nM,11000 nM,–
C=CCN(C[C@H](Cc1ccccc1)N(C)C)C(=O)N[C@@H](C)Cc1ccsc1,3200 nM,1700 nM,~15000 nM,–
C=CCN(C[C@H](Cc1ccccc1)N(C)C)C(=O)N[C@H](C)Cc1ccsc1,4100 nM,3100 nM,~15000 nM,–
CN(C)[C@@H](CNC(=O)NC(C)(C)Cc1ccsc1)Cc1ccccc1,180 nM,960 nM,2400 nM,–
CN(C)[C@H](CNC(=O)NC(C)(C)Cc1ccsc1)Cc1ccccc1,210 nM,790 nM,3000 nM,–
CN(C)[C@@H](CNC(=O)NC(C)(C)Cc1ccccc1)Cc1ccccc1,640 nM,1100 nM,1000 nM,–
CN(C)[C@H](CNC(=O)NC(C)(C)Cc1ccccc1)Cc1ccccc1,490 nM,930 nM,3300 nM,–
CN(C)[C@@H](CNC(=O)NCCc1ccsc1)Cc1ccc(O)cc1,1500 nM,5200 nM,11000 nM,–
CN(C)[C@H](CNC(=O)OCCc1ccsc1)Cc1ccc(O)cc1,170 nM,190 nM,570 nM,–
CN[C@H](CNC(=O)NCCc1ccccc1)Cc1ccc(O)cc1,290 nM,–,–,–
C[C@H](Cc1ccsc1)NC(=O)NC[C@@H](Cc1ccc(O)cc1)N(C)C,–,3100 nM,4100 nM,–
C[C@@H](Cc1ccsc1)NC(=O)NC[C@@H](Cc1ccc(O)cc1)N(C)C,–,2300 nM,4800 nM,–
CN(C)[C@H](CNC(=O)CCCc1ccccc1)Cc1ccc(O)cc1,72 nM,100 nM,370 nM,–
C[C@H](Cc1csc2ccccc12)NC(=O)NC[C@H](Cc1ccc(O)cc1)N(C)C,43 nM,67 nM,83 nM,–
CC(C)N(C[C@H](Cc1ccc(O)cc1)N(C)C)C(=O)N[C@@H](C)c1cccc2ccccc12,400 nM,920 nM,570 nM,–
CN(C)[C@@H](CNC(=O)NC(C)(C)Cc1ccsc1)Cc1ccc(O)cc1,310 nM,1300 nM,2900 nM,–
CN(C)[C@@H](CNC(=O)NC(C)(C)Cc1ccccc1)Cc1ccc(O)cc1,460 nM,1500 nM,3600 nM,–
C[C@@H](Cc1ccsc1)NC(=O)NC[C@H](Cc1ccnc(O)c1)N(C)C,210 nM,1200 nM,4100 nM,–
Cc1cc(O)cc(C)c1C[C@@H](CNC(=O)NCCc1ccsc1)N(C)C,6.2 nM,27 nM,51 nM,–

SMILES,Ki (hMOR; [1]),Ki (hKOR; [2]),Ki (humanDOR; [3]),further results
CN(C)[C@H](CNC(=O)NCCc1cn(Cc2ccccc2)nn1)Cc1ccc(O)cc1,–,–,380 nM,Ki (hMOR): 200 nM; Ki (hKOR): 1400 nM
CN(CCCl)C(CNC(=O)NCCc1ccccc1)Cc1ccc(O)cc1 (stereo not shown),–,–,–,"Ki (humanDOR; binding affinity Ki hDOR, PZM analogs, (n) = number of independent experiments): 360 nM"
CN(CCO)C(CNC(=O)NCCc1ccccc1)Cc1ccc(O)cc1 (stereo not shown),–,–,–,Ki (hMOR): 970 nM; Ki (hKOR): 1300 nM; Ki (humanDOR): 1800 nM
CN[C@H](CNC(=O)N[C@@H](C)Cc1ccsc1)Cc1ccc(O)cc1,–,240 nM,700 nM,–
C[C@@H](Cc1ccsc1)NC(=O)NCC(Cc1ccc(O)cc1)N(C)Cc1ccccc1 (stereo partly shown),220 nM,210 nM,720 nM,–
COc1ccccc1CCNC(=O)NCC(Cc1ccc(O)cc1)N(C)C (stereo not shown),22 nM,140 nM,150 nM,–
COc1cccc(CCNC(=O)NCC(Cc2ccc(O)cc2)N(C)C)c1 (stereo not shown),110 nM,1300 nM,220 nM,–
COc1ccc(CCNC(=O)NCC(Cc2ccc(O)cc2)N(C)C)cc1 (stereo not shown),330 nM,1500 nM,10000 nM,–
CN(C)C(CNC(=O)NCCc1ccccc1F)Cc1ccc(O)cc1 (stereo not shown),43 nM,440 nM,53 nM,–
CN(C)C(CNC(=O)NCCc1cccc(F)c1)Cc1ccc(O)cc1 (stereo not shown),36 nM,170 nM,250 nM,–
CN(C)C(CNC(=O)NCCc1ccc(F)cc1)Cc1ccc(O)cc1 (stereo not shown),27 nM,190 nM,250 nM,–
O=C(NCCc1ccccc1)NC[C@H](Cc1ccc(O)cc1)N1CCCC1,660 nM,770 nM,1500 nM,–
CN(C)[C@H](CNC(=O)NCCN1C(=O)C2C3C=CC(O3)C2C1=O)Cc1ccc(O)cc1 (stereo partly shown),–,–,–,Ki (hMOR): 2300 nM; Ki (hKOR): 8200 nM; Ki (humanDOR): 36000 nM
CC(Cc1csc2ccccc12)NC(=O)NC[C@H](Cc1ccc(O)cc1)N(C)C (mixture of isomers),14 nM,19 nM,–,–
"C[C@H](NC(=O)NC[C@H](Cc1ccc(O)cc1)N(C)C)c1ccccc1 (single isomer, unassigned)",38 nM,35 nM,590 nM,–
"CC(Cc1ccsc1)NC(=O)NCC(Cc1ccc(O)cc1)N(C)C (single isomer, unassigned) [BD 122DR]",–,–,–,Ki (hKOR; [4]): 3100 nM; Ki (humanDOR; [5]): 4100 nM
"CC(Cc1ccsc1)NC(=O)NCC(Cc1ccc(O)cc1)N(C)C (single isomer, unassigned) [BD 122DS]",–,–,–,Ki (hKOR; [4]): 2300 nM; Ki (humanDOR; [5]): 4800 nM
"CC(Cc1ccsc1)NC(=O)NCC(Cc1ccccc1)N(C)C (single isomer, unassigned) [BD 127DR]",–,–,–,Ki (hKOR; [4]): 5000 nM; Ki (humanDOR; [5]): 12000 nM
"CC(Cc1ccsc1)NC(=O)NCC(Cc1ccccc1)N(C)C (single isomer, unassigned) [BD 127DS]",–,–,–,Ki (hKOR; [4]): 3100 nM; Ki (humanDOR; [5]): 11000 nM
"CC(Cc1ccsc1)NC(=O)NCC(Cc1ccccc1)N(C)C (single isomer, unassigned) [BD 127LR]",–,–,–,Ki (hKOR; [4]): 1300 nM; Ki (humanDOR; [5]): 1800 nM
C[C@@H](Cc1ccsc1)NC(=O)NC[C@H](Cc1ccccc1)N(C)C [BD 127LS],–,–,–,Ki (hKOR; [4]): 1000 nM; Ki (humanDOR; [5]): 2800 nM

SMILES,Ki (hMOR; [1]),Ki (hKOR; [2]),Ki (humanDOR; [3]),further results
"CN(C)[C@H](CNC(=O)NC(C)(C)Cc1ccsc1)Cc1cccc(O)c1 [DD 46L, (S)-1-(2-(dimethylamino)-3-(3-hydroxyphenyl)propyl)-3-(2-methyl-1-(thiophen-3-yl)propan-2-yl)urea]",–,–,–,Ki (hMOR; [6]): 25 nM; Ki (hKOR; [4]): 32 nM; Ki (humanDOR; [5]): 190 nM
"C[C@H](NC(=O)NC[C@H](Cc1ccc(O)cc1)N(C)C)c1cccc2ccccc12 [DD 50LS, 1-((S)-2-(dimethylamino)-3-(4-hydroxyphenyl)propyl)-3-((S)-1-(naphthalen-1-yl)ethyl)urea]",–,–,–,Ki (hMOR; [6]): 84 nM; Ki (hKOR; [4]): 71 nM; Ki (humanDOR; [5]): 570 nM
"Cc1ccc([C@H](C)NC(=O)NC[C@H](Cc2ccc(O)cc2)N(C)C)cc1 [DD 51LS, 1-((S)-2-(dimethylamino)-3-(4-hydroxyphenyl)propyl)-3-((S)-1-(p-tolyl)ethyl)urea]",–,–,–,Ki (hMOR): 150 nM; Ki (hKOR): 180 nM; Ki (humanDOR): 700 nM
"C[C@H](Cc1ccccc1)NC(=O)NC[C@H](Cc1ccc(O)cc1)N(C)C [DD 61L-A, 1-((S)-2-(dimethylamino)-3-(4-hydroxyphenyl)propyl)-3-((R)-1-phenylpropan-2-yl)urea]",–,–,–,Ki (hMOR; [6]): 81 nM; Ki (hKOR; [4]): 67 nM; Ki (humanDOR; [5]): 91 nM
C[C@H](Cc1ccsc1)NC(=O)NC[C@@H](Cc1ccccc1)N(C)C [drawing 489],–,5000 nM,12000 nM,–
C[C@@H](Cc1ccsc1)NC(=O)NC[C@H](Cc1ccccc1)N(C)C [drawing 492],–,1000 nM,2800 nM,–
CN(C)[C@H](CNC(=O)NCCc1ccsc1)Cc1ccc(O)cc1 [drawing 500],43 nM,150 nM,330 nM,–
CN(C)[C@H](CNC(=S)NCCc1ccsc1)Cc1ccc(O)cc1 [drawing 501],29 nM,86 nM,70 nM,–
CN(C[C@H](Cc1ccc(O)cc1)N(C)C)C(=O)NCCc1ccccc1 [drawing 503],610 nM,340 nM,1700 nM,–
CN(CCc1ccccc1)C(=O)NC[C@H](Cc1ccc(O)cc1)N(C)C [drawing 504],320 nM,160 nM,1200 nM,–
CN(CCc1ccccc1)C(=O)N(C)C[C@H](Cc1ccc(O)cc1)N(C)C [drawing 505],490 nM,220 nM,4200 nM,–
CN(CC1CC1)[C@H](CNC(=O)NCCc1ccccc1)Cc1ccc(O)cc1 [drawing 507],760 nM,–,–,–
C[C@@H](Cc1ccsc1)NC(=O)NC[C@H](Cc1ccc(O)cc1)N(C)C [drawing 512],–,18 nM,1000 nM,–
CN(C)[C@H](CNC(=O)NCCc1ccccc1)Cc1ccc(O)cc1 [drawing 514],47 nM,45 nM,250 nM,–
C[C@H](Cc1ccccc1)NC(=O)NC[C@H](Cc1ccc(O)cc1)N(C)C [drawing 516],81 nM,67 nM,91 nM,–
C[C@@H](Cc1ccccc1)NC(=O)NC[C@H](Cc1ccc(O)cc1)N(C)C [drawing 517],42 nM,37 nM,360 nM,–
C[C@@H](Cc1csc2ccccc12)NC(=O)NC[C@H](Cc1ccc(O)cc1)N(C)C [drawing 521],8.3 nM,22 nM,110 nM,–
Cc1ccc([C@H](C)NC(=O)NC[C@H](Cc2ccc(O)cc2)N(C)C)cc1 [drawing 523],150 nM,180 nM,700 nM,–
C[C@H](NC(=O)NC[C@H](Cc1ccc(O)cc1)N(C)C)c1cccc2ccccc12 [drawing 524],85 nM,74 nM,540 nM,–
CN(C)[C@H](CNC(=O)NC1Cc2ccccc2C1)Cc1ccc(O)cc1 [drawing 526],7.7 nM,51 nM,56 nM,–
